In patent US6613322B2, “Method for treating a subject suffering from conditions associated with an extracellular zinc sphingomyelinase” (The Trustees of Columbia University in the City of New York, priority 1997, dated 2003):

Columns and labels:
[1] = tested on: mannose-phosphorylated S-SMase of HUVECs; assay: Binding of HUVEC S-SMase to mannose-phosphate receptor column; type: cell-based, human; conditions: conditioned medium of IL-1β-treated HUVECs; Western blot densitometry
Excerpt: We recently reported that S-SMase is secreted through a Golgi pathway that bypasses the lysosomal pathway of L-SMase. Thus, we considered three general mechanisms to explain how IL-Lβ increases the secretion of SMase: secretion of mannose-phosphorylated SMase during trafficking of the ASM precursor to lysosomes (e.g., due to saturation of the mannose-6-phosphate receptor—cf. Ref. (46)), induction of secretion of intralysosomal SMase (cf. Ref. (47)), or increased trafficking of the ASM precursor protein through the normal Golgi secretory pathway. To begin, we assessed the mannose-phosphorylation state of S-SMase from control and IL-1β-treated HUVECs by passing conditioned media from these cells over a mannose-phosphate receptor column (cf. Ref. (48)). By Western blot analysis quantified by densitometry, only 7.9% of control S-SMase and 4.9% of S-SMase from the cytokine-treated cells bound to the column and could be eluted with mannose-6-phosphate. As a control for this experiment, we have previously shown that the massive secretion of SMase by ASM-transfected CHO cells can be partly explained by secretion of mannose-phosphorylated SMase due to saturation of the mannose-6-phosphate receptor^2; when conditioned medium from these cells was passed over the receptor column, 40.3% bound and could be eluted with mannose-6-phosphate. […]

[2] = target: T1, S-SMase (Mus musculus, UniProt Q04519); assay: SMase assay of conditioned medium from J774 macrophages (SM micelles, pH 5.0); type: biochemical; conditions: 0.1 mM ZnCl2 versus 5 mM EDTA
T1 construct: endogenous in cells; host or cells: J774.A1 macrophages, serum-free conditioned medium
T1 sequence (Q04519 45-627): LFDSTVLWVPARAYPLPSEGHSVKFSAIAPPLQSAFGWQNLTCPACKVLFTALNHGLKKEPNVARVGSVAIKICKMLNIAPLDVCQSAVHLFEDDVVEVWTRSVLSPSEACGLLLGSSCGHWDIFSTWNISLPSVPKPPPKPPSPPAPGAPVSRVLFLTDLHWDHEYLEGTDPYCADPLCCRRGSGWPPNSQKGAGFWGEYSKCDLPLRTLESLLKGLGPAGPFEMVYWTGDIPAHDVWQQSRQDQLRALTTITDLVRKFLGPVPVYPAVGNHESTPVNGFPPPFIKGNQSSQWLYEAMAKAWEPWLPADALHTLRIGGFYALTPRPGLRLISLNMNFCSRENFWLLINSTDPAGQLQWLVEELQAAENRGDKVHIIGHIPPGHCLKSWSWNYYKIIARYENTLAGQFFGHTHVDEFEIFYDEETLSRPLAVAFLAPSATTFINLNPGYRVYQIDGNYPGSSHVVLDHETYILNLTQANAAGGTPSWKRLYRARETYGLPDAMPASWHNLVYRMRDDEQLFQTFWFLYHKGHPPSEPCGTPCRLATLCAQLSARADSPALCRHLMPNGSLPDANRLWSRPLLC
Procedure: FIGS. 14A-B. Sequential chelation and addition of Zn^2+ to secreted and intracellular SMase. Serum-free conditioned medium and a cell homogenate from J774 macrophages were prepared as described in “Experimental Procedures”. FIG. 14A, conditioned medium (CM) was assayed for SMase activity using 250 nM [^3H]sphingomyelin in Triton X-100 micelles in the presence of either 5 mM EDTA (first bar) or 0.1 mM ZnCl2 (second bar) for 1 h at 37° C. at pH 5.0. An aliquot of the Zn-activated conditioned medium was then incubated for 18 h in the presence of 10 mM EDTA, 10 mM 1,10-phenanthroline, and 0.6% Triton X-100 at 4° C. (EDTA PHNANTH) and then assayed for SMase activity (third bar). After chelation, a portion of this partially inactivated conditioned medium was then dialyzed against zinc-containing buffer C (150 mM NaCl, 10 mM Tris-HCl, 1 mM ZnCl2, 0.6% Triton X-100, pH 7.4) for 18 h and then assayed for SMase activity (fourth bar). FIG. 14B, an aliquot of cell homogenate (Cell Homgn) was assayed for SMase activity in the presence of assay buffer alone (first bar), 5 mM EDTA (second bar), or 0.1 mM ZnCl2 (third bar). Another aliquot of cell homogenate was incubated for 8 h in the presence of 10 mM EDTA, 10 mm 1,10-phenanthroline, and 0.6% Triton X-100 (EDTA PHNANTH) at 4° C. and then assayed for SMase activity (fourth bar). An aliquot of this chelator-treated cell homogenate was then dialyzed against zinc-containing buffer C for 18 h and then assayed for SMase activity (fifth bar).
SMase Assay—As previously described (Schissel et al., 1996), the standard 200-μl assay mixture consisted of up to 40 μl of sample (conditioned media or homogenized cells; see above) and a volume of assay buffer (0.1 M sodium acetate, pH 5.0) to bring the volume to 160 μl. […] The ceramide spots were scraped and directly counted to quantify [^3H]ceramide. Typically, the assay reactions contained approximately 20 μg of cellular homogenate protein and a volume of conditioned media derived from a quantity of cells equivalent to approximately 50 μg of cellular protein.

Row | S-SMase bound to mannose-phosphate receptor column and eluted with mannose-6-phosphate [1] [%] | activation of S-SMase [2] | Compound
1 | 4.9 | – | IL-1β: human recombinant interleukin-1β
2 | – | markedly activated | [Cl-].[Cl-].[Zn+2] [Zn^2+, ZnCl2]
